≈ marks a conversion by molar mass, not a printed value.
What was measured:
[1] = biological target: BioA (7,8-diaminopelargonic acid synthase) (Escherichia coli, UniProt P12995); assay: recombinant BioA activity, bioA auxotroph feeding assay at […]; type: biochemical
E. coli MG1655 = assay: microbe, parasite or virus in culture; details: Escherichia coli, MG1655, 16 h, read-out: MIC (μg/ml) ^a / −bio

Sequence of BioA (7,8-diaminopelargonic acid synthase) (P12995 whole entry): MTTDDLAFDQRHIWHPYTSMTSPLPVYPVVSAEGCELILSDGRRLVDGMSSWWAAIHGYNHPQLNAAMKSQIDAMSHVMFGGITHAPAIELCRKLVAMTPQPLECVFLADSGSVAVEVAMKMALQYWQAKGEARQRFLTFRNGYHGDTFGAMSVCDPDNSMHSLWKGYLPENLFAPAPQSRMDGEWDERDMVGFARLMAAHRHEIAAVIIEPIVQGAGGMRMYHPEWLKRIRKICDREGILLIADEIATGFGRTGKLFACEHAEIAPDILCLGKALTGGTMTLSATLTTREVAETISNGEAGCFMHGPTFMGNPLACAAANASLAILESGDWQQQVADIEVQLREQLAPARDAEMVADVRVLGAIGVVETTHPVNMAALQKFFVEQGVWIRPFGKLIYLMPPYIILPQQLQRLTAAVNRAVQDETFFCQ

Row | Compound | MIC (E. coli MG1655) [µg/mL] | other results
1 | NNC(=O)CSc1cccc([N+](=O)[O-])c1 [compound 5] |  | % Inhibition ^b / 10 μM / 100 [1]: 84
2 | NNC(=O)CSc1ccc([N+](=O)[O-])cc1 [compound 6] |  | % Inhibition ^b / 1 μM / 100 [1]: 66
3 | CCCC(=O)NN [compound 21] | > 256 | 
4 | CC(=O)NN [compound 23] | 128 (≈ 1730 µM) | 

Reference: publication PMC3970981 (Nature chemical biology, 2013)
